According to patent publication US11999727B2 (Tango Therapeutics, Inc., priority 2020, dated 2024):

Key:
PRMT5 [1] = target: T1, PRMT5 (Homo sapiens, UniProt O14744); assay: PRMT5 biochemical IC50 assay with SAM as cofactor; settings: PRMT5, SAM as cofactor; read-out: SAM IC50
T1 construct: purchased Viva (custom protein)

PRMT5 [2] = target: T1, PRMT5; assay: PRMT5 biochemical IC50 assay with no cofactor; settings: PRMT5, no cofactor
Source text: Table 1 indicates IC50 values (μM) against PRMT5 for exemplary compounds in the presence of SAM as cofactor, with no cofactor, and with MTA as cofactor, respectively (columns 4-6). […] Ki values can be calculated from the IC50 values as described in the Examples section. As detailed in the Examples section, for the assay performed in the presence of SAM, IC50=Ki×1.5 (Ki=IC50/1.5).

PRMT5 [3] = target: T1, PRMT5; assay: PRMT5 biochemical IC50 assay with MTA as cofactor; settings: PRMT5, MTA as cofactor; read-out: MTA IC50
[4] = system: HAP1 MTAP-intact cell line; assay: SDMA in-cell western assay, HAP1 MTAP-intact; format: cell-based; settings: Homo sapiens, HAP1, SDMA in-cell western, HAP1 MTAP-intact; read-out: MTAP HAP1 intact IC50
Method in brief: (§1)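 Isogenic HAP1 pair: the MTAP-intact line expresses endogenous MTAP, and the deleted line is MTAP-null. Symmetric dimethylarginine was detected by in-cell western and IC50 values derived for each line.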

[5] = system: HAP1 MTAP-deleted cell line; assay: SDMA in-cell western assay, HAP1 MTAP-deleted; format: cell-based; settings: for IC50: Homo sapiens, HAP1, SDMA in-cell western, HAP1 MTAP-deleted; for MTAP intact/deleted ratio: SDMA in-cell western
Method in brief: as §1

[6] = system: HAP1 MTAP-deleted cell line; assay: Viability assay, MTAP-deleted cell line; format: cell-based; settings: Homo sapiens, read-out: HAP1 MTAP deleted viability
Source text: Table 1 additionally indicates IC50 values in a viability assay for the MTAP-deleted cell line (column 10), indicating the effect of treatment with compound on cell survival.

[7] = read-out: HAP1 MTAP deleted IC50
[8] = IC50 ratio HAP1 MTAP-intact / HAP1 MTAP-deleted
[9] = HAP1, viability assay, HAP1 MTAP-deleted
[10] = read-out: HAP 1 MTAP deleted IC50
[11] = HAP1, viability assay, MTAP-deleted cell line
[12] = read-out: No Cofactor/ rel IC50
[13] = HAP1, viability, HAP1 MTAP-deleted cell line
[14] = HAP1, viability IC50, MTAP-deleted cell line

T1 sequence (O14744 whole entry): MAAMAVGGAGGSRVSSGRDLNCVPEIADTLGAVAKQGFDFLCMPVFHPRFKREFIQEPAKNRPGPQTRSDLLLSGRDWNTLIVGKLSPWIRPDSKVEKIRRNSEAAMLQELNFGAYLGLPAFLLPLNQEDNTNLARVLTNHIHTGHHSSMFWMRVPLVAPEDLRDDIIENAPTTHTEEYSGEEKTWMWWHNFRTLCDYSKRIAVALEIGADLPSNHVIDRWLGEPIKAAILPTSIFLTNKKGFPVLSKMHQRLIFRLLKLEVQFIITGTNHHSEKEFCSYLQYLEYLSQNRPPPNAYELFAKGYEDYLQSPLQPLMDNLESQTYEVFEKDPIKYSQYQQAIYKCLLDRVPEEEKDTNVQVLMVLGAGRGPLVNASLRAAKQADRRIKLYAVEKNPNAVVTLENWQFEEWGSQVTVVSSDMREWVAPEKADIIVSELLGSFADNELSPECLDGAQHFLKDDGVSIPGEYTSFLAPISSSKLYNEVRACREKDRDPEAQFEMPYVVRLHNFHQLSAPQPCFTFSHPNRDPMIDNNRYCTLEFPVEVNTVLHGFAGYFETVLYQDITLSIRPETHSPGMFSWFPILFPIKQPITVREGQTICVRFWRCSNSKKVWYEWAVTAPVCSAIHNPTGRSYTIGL
T1 sequence (Q9BQA1 whole entry partner): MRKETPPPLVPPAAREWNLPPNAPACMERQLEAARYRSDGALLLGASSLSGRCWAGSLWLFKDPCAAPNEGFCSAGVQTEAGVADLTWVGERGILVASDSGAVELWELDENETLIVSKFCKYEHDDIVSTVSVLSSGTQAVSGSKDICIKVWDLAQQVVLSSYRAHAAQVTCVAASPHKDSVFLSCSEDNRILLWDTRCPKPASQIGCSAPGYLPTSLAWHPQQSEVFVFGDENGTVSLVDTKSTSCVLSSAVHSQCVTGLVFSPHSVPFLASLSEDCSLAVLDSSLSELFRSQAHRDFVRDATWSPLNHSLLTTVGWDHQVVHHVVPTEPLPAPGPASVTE

Compound	IC50 (PRMT5 [1]) [nM]	IC50 (PRMT5 [2]; read-out: No Cofactor/rel IC50) [nM]	IC50 (PRMT5 [3]) [nM]	IC50 [4] [nM]	IC50 [5, 7] [nM]	IC50 [5, 10] [nM]	IC50 (PRMT5 [2]; [12]) [nM]	MTAP intact/deleted ratio [5, 8]	IC50 [6, 9] [nM]	IC50 [6, 11] [nM]	IC50 [6, 13] [nM]	IC50 [6, 14] [nM]	MTAP intact/deleted ratio ([5]; IC50 ratio HAP1 MTAP-intact vs HAP1 MTAP-deleted)
COc1ncc(NC(=O)C(=O)N2C[C@@H](C)CC[C@@H]2c2ccc(-c3cncs3)cc2)cc1C(N)=O (single isomer, unassigned) [Compound 842, 2-methoxy-5-(2-(5-methyl-2-(4-(thiazol-5-yl)phenyl)piperidin-1-yl)-2-oxoacetamido)nicotinamide]	> 500	> 500	> 500	> 1000	> 1000	–	–	B (an IC50 ratio greater than or equal to 3 fold but lower than 10 fold)	> 10000	–	–	–	–
COc1ncc(NC(=O)C(=O)N2C[C@@H](C)CC[C@H]2c2ccc(C)cn2)cc1C(N)=O (racemic) [Compound 886, 2-Methoxy-5-[[2-[(2R,5R)-5-methyl-2-(5-methyl-2-pyridyl)-1-piperidyl]-2-oxo-acetyl]amino]pyridine-3-carboxamide]	> 500	> 500	50 to 500	> 1000	–	> 1000	–	B (an IC50 ratio greater than or equal to 3 fold but lower than 10 fold)	–	> 10000	–	–	–
Cc1cc(NC(=O)C(=O)N2C[C@H]3CC[C@H](C3)[C@H]2c2cccs2)cnc1N (single isomer, unassigned) [Compound 134]	> 500	–	> 500	> 1000	–	> 1000	> 500	C (an IC50 ratio of less than 3 fold)	–	> 10000	–	–	–
Cc1cc(NC(=O)C(=O)N2C[C@H](C)CC[C@H]2C2CCN(C)CC2)cnc1N (racemic) [Compound 614, N-(6-amino-5-methyl-3-pyridyl)-2-[(2R,5S)-5-methyl-2-(1-methyl-4-piperidyl)-1-piperidyl]-2-oxo-acetamide]	> 500	> 500	> 500	> 1000	–	> 1000	–	C (an IC50 ratio of less than 3 fold)	–	–	–	> 10000	–
C[C@@H]1CN(C(=O)C(=O)Nc2cnc(N)c(C3CC3)c2)[C@@H](c2ccc3scnc3c2)CC1(F)F (single isomer, unassigned) [Compound 1307]	> 500	–	50 to 500	> 1000	–	< 100	50 to 500	A (an IC50 ratio greater than or equal to 10 fold)	–	–	< 1000	–	–
C[C@@H]1CC[C@@H](c2ccc3c(c2)CCO3)N(C(=O)C(=O)Nc2cncc(C(N)=O)c2)C1 (racemic) [Compound 282, rac-5-{2-[(2R,5S)-2-(2,3-Dihydro-1-benzofuran-5-yl)-5-methylpiperidin-1-yl]-2-oxoacetamido}pyridine-3-carboxamide]	> 500	> 500	50 to 500	> 1000	100 to 1000	–	–	A (an IC50 ratio greater than or equal to 10 fold)	–	> 10000	–	–	–
COc1ncc(NC(=O)C(=O)N2C[C@H](C)CC[C@H]2c2ccc(NS(C)(=O)=O)nc2)cc1C(N)=O (single isomer, unassigned) [Compound 986]	> 500	50 to 500	< 50	> 1000	–	100 to 1000	–	A (an IC50 ratio greater than or equal to 10 fold)	–	1000 to 10000	–	–	–
C[C@@H]1CC[C@@H](c2cccc(C(F)(F)F)c2)N(C(=O)C(=O)Nc2cncc(C(N)=O)c2)C1 (single isomer, unassigned) [Compound 510]	> 500	> 500	> 500	> 1000	> 1000	–	–	C (an IC50 ratio of less than 3 fold)	–	> 10000	–	–	–
Cc1cc(NC(=O)C(=O)N2C[C@H](C)CC[C@H]2c2ccc(CCN(C)C)cc2)cnc1N (single isomer, unassigned) [Compound 1358]	50 to 500	–	< 50	< 100	–	< 100	< 50	A (an IC50 ratio greater than or equal to 10 fold)	–	–	< 1000	–	–
CC(=O)Nc1ccc([C@H]2CC[C@H](C)CN2C(=O)C(=O)Nc2cncc(C(N)=O)c2)s1 (single isomer, unassigned) [Compound 686]	> 500	> 500	> 500	> 1000	–	> 1000	–	C (an IC50 ratio of less than 3 fold)	–	–	–	> 10000	–
COc1ncc(NC(=O)C(=O)N2C[C@@H](C)[C@@H](OC)C[C@@H]2c2ccc3scnc3c2)cc1C(N)=O (single isomer, unassigned) [Compound 1344]	> 500	–	> 500	> 1000	–	100 to 1000	> 500	–	–	–	1000 to 10000	–	–
COc1ncc(NC(=O)C(=O)N2C[C@@H](C)CC[C@@H]2c2ccc3sc(CCN4CCCC4)nc3c2)cc1C(N)=O [Compound 1288, 2-methoxy-5-(2-((2R,53)-5-methyl-2-(2-(2-(pyrrolidin-1-yl)ethyl)benzo[d]thiazol-5-yl)piperidin-1-yl)-2-oxoacetamido)nicotinamide]	50 to 500	–	< 50	100 to 1000	–	< 100	50 to 500	A (an IC50 ratio greater than or equal to 10 fold)	–	–	< 1000	–	–

Now from value to compound, other results behind:

IC50 (PRMT5 [1]) [nM]	IC50 (PRMT5 [2]; read-out: No Cofactor/rel IC50) [nM]	IC50 (PRMT5 [3]) [nM]	IC50 [4] [nM]	IC50 [5, 7] [nM]	IC50 [5, 10] [nM]	IC50 (PRMT5 [2]; [12]) [nM]	Compound	MTAP intact/deleted ratio [5, 8]	IC50 [6, 9] [nM]	IC50 [6, 11] [nM]	IC50 [6, 13] [nM]	IC50 [6, 14] [nM]	MTAP intact/deleted ratio ([5]; IC50 ratio HAP1 MTAP-intact vs HAP1 MTAP-deleted)
50 to 500	–	< 50	> 1000	–	< 100	50 to 500	CC1Cc2cc([C@@H]3CC[C@@H](C)CN3C(=O)C(=O)Nc3cncc(C(N)=O)c3)ccc2O1 (mixture of isomers) [Compound 151, rac-5-{2-[(2R,5S)-5-Methyl-2-(2-methyl-2,3-dihydro-1-benzofuran-5-yl)piperidin-1-yl]-2-oxoacetamido}pyridine-3-carboxamide]	A (an IC50 ratio greater than or equal to 10 fold)	–	1000 to 10000	–	–	–
< 50	–	< 50	< 100	–	< 100	< 50	C[C@H]1CC[C@H](c2ccc3sc(C4CCN(C)CC4)nc3c2)N(C(=O)C(=O)Nc2cnc(OC(F)(F)F)c(C(N)=O)c2)C1 (single isomer, unassigned) [Compound 1337]	B (an IC50 ratio greater than or equal to 3 fold but lower than 10 fold)	–	–	< 1000	–	–
50 to 500	50 to 500	< 50	> 1000	< 100	–	–	Cc1c(NC(=O)C(=O)N2[C@H](C)CCC[C@@H]2c2ccccc2)cnc(N)c1C (single isomer, unassigned) [Compound 439]	A (an IC50 ratio greater than or equal to 10 fold)	–	1000 to 10000	–	–	–
50 to 500	–	50 to 500	> 1000	–	> 1000	50 to 500	COc1cccc([C@@H]2CC[C@@H](C)CN2C(=O)C(=O)Nc2cncc(C)c2)c1 (racemic) [Compound 28, rac-2-((2R,5S)-2-(3-methoxyphenyl)-5-methylpiperidin-1-yl)-N-(5-methylpyridin-3-yl)-2-oxoacetamide]	C (an IC50 ratio of less than 3 fold)	–	> 10000	–	–	–
50 to 500	50 to 500	< 50	> 1000	< 100	–	–	CNc1nc2cc([C@@H]3CC[C@@H](C)CN3C(=O)C(=O)Nc3cncc(C(N)=O)c3)ccc2s1 (single isomer, unassigned) [Compound 877]	A (an IC50 ratio greater than or equal to 10 fold)	< 1000	–	–	–	–
50 to 500	50 to 500	< 50	100 to 1000	–	100 to 1000	–	Cc1cc(NC(=O)C(=O)N2C[C@@H](C)CC[C@@H]2c2ccc(C(F)F)nc2)cnc1N (single isomer, unassigned) [Compound 1018]	B (an IC50 ratio greater than or equal to 3 fold but lower than 10 fold)	–	1000 to 10000	–	–	–
< 50	< 50	< 50	< 100	< 100	–	–	COc1ncc(NC(=O)C(=O)N2C[C@@H](C)CC[C@@H]2c2ccc3sc(C4CC(C)(C)N(C)C(C)(C)C4)nc3c2)cc1C(N)=O (single isomer, unassigned) [Compound 1108]	–	–	< 1000	–	–	A (an IC50 ratio greater than or equal to 10 fold)
